Experimental data taken from the Deep4Chem optical property database.

Assay: photoluminescence quantum yield (fraction); solvent given as SMILES

Question: With `FC(F)(F)C(F)(F)C(F)(F)C1=NC2=C(c3ccccc3)C=C3c4cc(-c5ccccc5)c5nc(C(F)(F)C(F)(F)C(F)(F)F)nc6c(-c7ccccc7)cc(c4c56)=C4C=C(c5ccccc5)C(=N1)C2C34` (stereo unspecified) as the compound, how does the photoluminescence quantum yield (in C1CCOC1) read?
Answer: 0.85

Question: Which photoluminescence quantum yield (in CO) does the source give for `Cc1ccc(C2=C3C=CC(Nc4ccccc4)=[N+]3[B-](F)(F)n3c(Nc4ccccc4)ccc32)cc1` here?
Answer: 0.45

Question: Which photoluminescence quantum yield (in ClCCl) does the source give for `CCCCn1c(-c2ccc(-c3nnc(-c4ccc5ccccc5c4)o3)cc2)nc2c3ccccc3c3ccccc3c21` here?
Answer: 0.75

Question: For `O=P1(c2ccccc2)c2cccc3ccc4ccc1n4c23` (stereo unspecified), which photoluminescence quantum yield (in ClCCl) is on record?
Answer: 0.36

Question: For `CN(C)c1ccc(C#Cc2ccc3ccc4ccc(C#Cc5ccc(N(C)C)cc5)c5ccc2c3c45)cc1`, which photoluminescence quantum yield (in CCCCCC) is on record?
Answer: 0.632

Question: And the photoluminescence quantum yield (in CO)?
Answer: 0.256

Question: What about the photoluminescence quantum yield (in ClCCl) of the same compound?
Answer: 0.534

Question: Which photoluminescence quantum yield (in C1COCCO1) does the source give for `COc1ccc(C2=N/C(=C\c3ccc(C#N)cc3)C(=O)N2)cc1OC` here?
Answer: 0.189

Question: For `CC1=c2cc3c(cc2=[N+]2C1=Cc1c4ccccc4c(C)n1[B-]2(F)F)C1=Cc2c4ccccc4c(C)n2[B-](F)(F)[N+]1=C3C`, which photoluminescence quantum yield (in ClC(Cl)Cl) is on record?
Answer: 0.04

Question: With `COC(=O)c1nc2cnc(N)nc2n1Cc1ccccc1` as the compound, how does the photoluminescence quantum yield (in C1COCCO1) read?
Answer: 0.64

Question: What about the photoluminescence quantum yield (in CC#N) of the same compound?
Answer: 0.55

Question: What about the photoluminescence quantum yield (in CO) of the same compound?
Answer: 0.87

Question: And the photoluminescence quantum yield (in ClCCl)?
Answer: 0.42

Question: And the photoluminescence quantum yield (in O)?
Answer: 0.95

Question: Which photoluminescence quantum yield (in Cc1ccccc1) does the source give for `CC1(C)c2ccccc2N(c2ccc(-c3cc(C#N)c(C#N)cc3-c3ccc(N4c5ccccc5C(C)(C)c5ccccc54)cc3)cc2)c2ccccc21` here?
Answer: 0.59

Question: And the photoluminescence quantum yield (in c1cc(-c2cccc(-n3c4ccccc4c4ccccc43)c2)cc(-n2c3ccccc3c3ccccc32)c1)?
Answer: 0.86

Question: With `Cc1c2c(nc3ccccc13)-c1cc3c(cc1CC2)-c1nc2ccccc2c(C)c1CC3` as the compound, how does the photoluminescence quantum yield (in ClC(Cl)Cl) read?
Answer: 0.435

Question: For `Cc1ccc(C2=C(c3ccc(C)cc3)c3cccc4c3c(cc3nc5ccccc5nc34)O2)cc1`, which photoluminescence quantum yield (in ClCCl) is on record?
Answer: 0.43

Question: With `Cc1cc(C)c(B(c2c(C)cc(C)cc2C)c2cc3cc(N(C)C)c4ccccc4c3c3c2ccc2ccccc23)c(C)c1` as the compound, how does the photoluminescence quantum yield (in C1CCCCC1) read?
Answer: 0.36

Question: What about the photoluminescence quantum yield (in C1CCOC1) of the same compound?
Answer: 0.21

Question: And the photoluminescence quantum yield (in CC#N)?
Answer: 0.13

Question: And the photoluminescence quantum yield (in ClC(Cl)Cl)?
Answer: 0.2

Question: And the photoluminescence quantum yield (in c1ccccc1)?
Answer: 0.3

Question: With `CN(C)c1ccc(/C=C/c2ncccn2)cc1` as the compound, how does the photoluminescence quantum yield (in ClCCl) read?
Answer: 0.01

Question: Which photoluminescence quantum yield (in C1CCOC1) does the source give for `C(=C(c1ccccc1)c1ccccc1)c1ccc(-c2cc(-c3ccc(C=C(c4ccccc4)c4ccccc4)cc3)c(-c3ccc(C=C(c4ccccc4)c4ccccc4)cc3)cc2-c2ccc(C=C(c3ccccc3)c3ccccc3)cc2)cc1` here?
Answer: 0.0282

Question: With `C(S/C=C/c1ccc(-c2ccc(/C=C/SC=C3CCCCC3)cc2)cc1)=C1CCCCC1` as the compound, how does the photoluminescence quantum yield (in ClCCl) read?
Answer: 0.238

Question: Which results are given for `Cc1nnc(-c2cc(-c3nnc(C)o3)c(-n3c4ccccc4c4ccccc43)cc2-n2c3ccccc3c3ccccc32)o1`?
Answer: photoluminescence quantum yield (in Cc1ccccc1): 0.068; photoluminescence quantum yield (in O=P(c1ccccc1)(c1ccccc1)c1ccccc1Oc1ccccc1P(=O)(c1ccccc1)c1ccccc1): 0.59

Question: Which photoluminescence quantum yield (in ClC(Cl)Cl) does the source give for `CC(C)(C)c1cccc2c1oc1nc3oc4ccc(-n5c6ccccc6c6ccccc65)cc4c3cc12` here?
Answer: 0.072

Question: For `CN(C)c1ccc(C2=Nc3scc(-c4ccc([N+](=O)[O-])cc4)[n+]3[B-](F)(F)O2)cc1`, which photoluminescence quantum yield (in C1CCOC1) is on record?
Answer: 0.001

Question: What about the photoluminescence quantum yield (in CC#N) of the same compound?
Answer: 0.001

Question: What about the photoluminescence quantum yield (in Cc1ccccc1) of the same compound?
Answer: 0.001

Question: What about the photoluminescence quantum yield (in ClCCl) of the same compound?
Answer: 0.001

Question: Which photoluminescence quantum yield (in CC#N) does the source give for `c1ccc2c(-c3cc(-c4nccs4)nc(-c4nccs4)c3)cccc2c1` here?
Answer: 0.33

Question: And the photoluminescence quantum yield (in CCCCCC)?
Answer: 0.411

Question: And the photoluminescence quantum yield (in CO)?
Answer: 0.207

Question: And the photoluminescence quantum yield (in ClC(Cl)Cl)?
Answer: 0.439

Question: What does the source list for `O=c1c2cc(Cl)ccc2nc2n1[B-](F)(F)[n+]1ccccc1-2`?
Answer: photoluminescence quantum yield (in CC#N): 0.89; photoluminescence quantum yield (in ClCCl): 0.99

Question: Which results are given for `CN1C(=O)/C(=C/c2ccncc2)N=C1c1ccccc1`?
Answer: photoluminescence quantum yield (in C1COCCO1): 0.466; photoluminescence quantum yield (in CC#N): 0.048; photoluminescence quantum yield (in CCO): 0.073; photoluminescence quantum yield (in CCOC(C)=O): 0.186; photoluminescence quantum yield (in O): 0.0069

Question: Which photoluminescence quantum yield (in O) does the source give for `Fc1cc(F)c2cc3cccc[n+]3cc2c1` here?
Answer: 0.3

Question: Which photoluminescence quantum yield (in C1CCCCC1) does the source give for `CN(C)c1ccc(-c2c(/C=C3/C=Cc4ccccc4N3Cc3ccccc3)c(=O)c2=O)cc1` here?
Answer: 0.0146

Question: And the photoluminescence quantum yield (in Cc1ccccc1)?
Answer: 0.0141

Question: What about the photoluminescence quantum yield (in ClCCl) of the same compound?
Answer: 0.001

Question: What does the source list for `Cc1cc2c(o1)c(C)cc1ccc(=O)oc12`?
Answer: photoluminescence quantum yield (in C1CCCCC1): 0.0001; photoluminescence quantum yield (in C1COCCO1): 0.0001; photoluminescence quantum yield (in CC#N): 0.001; photoluminescence quantum yield (in CCO): 0.007; photoluminescence quantum yield (in OCC(F)(F)F): 0.03

Question: Which photoluminescence quantum yield (in ClCCl) does the source give for `O=P1(c2ccccc2)c2ccccc2-c2sc3ccccc3c21` (stereo unspecified) here?
Answer: 0.71

Question: Which photoluminescence quantum yield (in CC#N) does the source give for `Oc1ccccc1/C=N/C1CCCCC1/N=C/c1ccccc1O` (stereo unspecified) here?
Answer: 0.069

Question: For `N#C/C(=C\c1ccc([N+](=O)[O-])cc1)c1nc(-c2ccccc2)cs1`, which photoluminescence quantum yield (in CC#N) is on record?
Answer: 0.051

Question: Which photoluminescence quantum yield (in C1CCCCC1) does the source give for `CCCCc1cc2cccc3cc(CCCC)c4cc(-c5cc6[b-]7c(c5)c(CCCC)cc5cccc(cc6CCCC)[n+]75)cc1[b-]4[n+]23` here?
Answer: 0.06

Question: With `CCn1c2c(-c3cccs3)cc(C(C)(C)C)cc2c2cc(C(C)(C)C)cc(-c3cccs3)c21` as the compound, how does the photoluminescence quantum yield (in ClCCl) read?
Answer: 0.064

Question: With `Cc1ccc2c(c1)C1(c3ccccc3-c3ccccc31)c1cc(C)ccc1N2c1ccc(-c2nc(-c3ccccc3)cc(-c3ccccc3)n2)cc1` as the compound, how does the photoluminescence quantum yield (in O=P(c1ccccc1)(c1ccccc1)c1ccc2oc3ccc(P(=O)(c4ccccc4)c4ccccc4)cc3c2c1) read?
Answer: 0.87

Question: With `CCN(CC)c1c2ccc(=[N+]3CCCCC3)cc-2oc2cc(N3CCCCC3)ccc12` as the compound, how does the photoluminescence quantum yield (in ClCCl) read?
Answer: 0.11

Question: For `COc1ccc2c(c1)cc(C)c1c3ccccc3[nH]c21`, which photoluminescence quantum yield (in ClCCl) is on record?
Answer: 0.109
